Measurements: ChEMBL document CHEMBL5727880, “Amide compounds as kinase inhibitors, compositions and methods of treatment” (2020)

Target: Rho-associated protein kinase 2 (Homo sapiens, UniProt O75116)
Assay: Kinase Inhibition Assay: The following assay protocol is for measuring the phosphorylation of a peptide substrate (FAM-[…]-OH wherein FAM is carboxyfluorescein). The peptide is >98% purity by Capillary Electrophoresis. The peptide is phosphorylated by the protein kinase ROCK1 or ROCK2. The ROCK1 or ROCK2 enzyme, substrate, and cofactors (ATP and Mg2+) are combined in a well of a microtiter plate and incubated for 3 hours at 25° C. in the presence or absence of an inhibitor compound. At the end of the incubation, the reaction is quenched by the addition of an EDTA-containing buffer. The substrate and product are separated and quantified electrophoretically using the microfluidic-based LABCHIP® 3000 Drug Discovery System from Caliper Life Sciences (Hopkinton, Mass.).The components of the assay mixture are:100 mM HEPES, pH 7.50.1% BSA0.01% Triton X-1001 mM DTT10 mM MgCl210 μM Sodium Orthovanadate10 LM Beta-Glycerophosphate5 μM ATP (for ROCK1) or 7 μM ATP (for ROCK2)1% DMSO (from compound)1.25 μM FAM-[…]-OH3 nM ROCK1 or 2.5 nM ROCK2 enzymeSubstrate and product peptides present in each sample are separated electrophoretically using the LABCHIP® 3000 capillary electrophoresis instrument. As substrate and product peptides are separated two peaks of fluorescence are observed. […]

Sequence of Rho-associated protein kinase 2 (O75116 whole entry): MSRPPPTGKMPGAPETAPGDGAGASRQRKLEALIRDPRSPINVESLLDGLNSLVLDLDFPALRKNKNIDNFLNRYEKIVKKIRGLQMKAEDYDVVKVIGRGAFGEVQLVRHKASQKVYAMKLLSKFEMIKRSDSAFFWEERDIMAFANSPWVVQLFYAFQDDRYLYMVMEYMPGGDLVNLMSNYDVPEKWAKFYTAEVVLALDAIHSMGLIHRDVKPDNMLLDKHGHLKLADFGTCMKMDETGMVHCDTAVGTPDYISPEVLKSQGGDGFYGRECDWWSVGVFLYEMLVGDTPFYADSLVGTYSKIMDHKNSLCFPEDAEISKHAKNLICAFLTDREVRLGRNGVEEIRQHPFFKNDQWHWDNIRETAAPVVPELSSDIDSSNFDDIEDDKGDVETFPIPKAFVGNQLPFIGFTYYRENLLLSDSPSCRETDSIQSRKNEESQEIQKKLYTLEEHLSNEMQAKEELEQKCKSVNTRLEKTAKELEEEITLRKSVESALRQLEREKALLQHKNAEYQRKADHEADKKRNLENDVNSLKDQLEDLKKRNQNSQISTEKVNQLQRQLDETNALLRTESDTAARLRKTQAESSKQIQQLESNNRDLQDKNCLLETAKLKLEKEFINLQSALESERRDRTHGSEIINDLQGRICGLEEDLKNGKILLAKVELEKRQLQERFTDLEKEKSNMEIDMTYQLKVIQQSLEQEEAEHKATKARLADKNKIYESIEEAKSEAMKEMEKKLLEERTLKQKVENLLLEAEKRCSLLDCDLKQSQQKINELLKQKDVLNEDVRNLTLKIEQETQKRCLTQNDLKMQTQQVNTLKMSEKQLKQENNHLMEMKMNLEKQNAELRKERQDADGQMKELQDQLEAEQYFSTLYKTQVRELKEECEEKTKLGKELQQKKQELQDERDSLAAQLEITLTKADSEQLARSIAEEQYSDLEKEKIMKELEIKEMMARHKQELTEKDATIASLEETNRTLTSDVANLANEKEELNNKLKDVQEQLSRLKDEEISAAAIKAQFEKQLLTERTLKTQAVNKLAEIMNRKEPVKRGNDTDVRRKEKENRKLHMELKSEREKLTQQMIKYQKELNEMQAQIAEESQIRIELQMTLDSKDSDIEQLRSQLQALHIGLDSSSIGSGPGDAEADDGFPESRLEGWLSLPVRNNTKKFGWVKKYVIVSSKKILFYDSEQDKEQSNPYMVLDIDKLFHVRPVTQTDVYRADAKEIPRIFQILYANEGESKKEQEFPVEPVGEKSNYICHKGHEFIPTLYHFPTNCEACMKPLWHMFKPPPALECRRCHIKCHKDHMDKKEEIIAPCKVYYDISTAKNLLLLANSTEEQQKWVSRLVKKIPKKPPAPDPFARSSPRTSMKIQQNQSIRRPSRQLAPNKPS

For `C[C@@H](NC(=O)c1ccc(-c2ccncc2)cc1)c1cccc(C(=O)NC2CCCC2)c1`, the IC50 was 1.2 nM.
